Laboratory results published in US5550148A, “PAF synthesis modulators” (ZymoGenetics, Inc., priority 1995, dated 1996).

Tests used:
P56^lck tyrosine kinase = P56^lck tyrosine kinase (Homo sapiens, UniProt P06239); assay: inhibition of P56^lck tyrosine kinase; assay type: biochemical; settings: 0.5% DMSO
Protocol: (§1) Compound 1494 was assayed for a variety of inhibitory activities. […] Displacement of [^3 H]pyrilamine from histamine H1 binding sites (IC50 of about 3 μM) was noted, but may be unrelated to functional receptor agonism or antagonism. Displacement of [3H]dexamethasone from glucocorticoid binding sites (IC50 of about 3 μM) was also observed. Inhibition of the following activities was also detected: […]

[1] = biological target: T1, glucocorticoid binding sites (Homo sapiens, UniProt P04150); assay: displacement of [3H]dexamethasone from glucocorticoid binding sites; settings: 0.01, 0.1, 1 and 10 μM tested, 0.5% DMSO
T1 sequence (P04150 1-777): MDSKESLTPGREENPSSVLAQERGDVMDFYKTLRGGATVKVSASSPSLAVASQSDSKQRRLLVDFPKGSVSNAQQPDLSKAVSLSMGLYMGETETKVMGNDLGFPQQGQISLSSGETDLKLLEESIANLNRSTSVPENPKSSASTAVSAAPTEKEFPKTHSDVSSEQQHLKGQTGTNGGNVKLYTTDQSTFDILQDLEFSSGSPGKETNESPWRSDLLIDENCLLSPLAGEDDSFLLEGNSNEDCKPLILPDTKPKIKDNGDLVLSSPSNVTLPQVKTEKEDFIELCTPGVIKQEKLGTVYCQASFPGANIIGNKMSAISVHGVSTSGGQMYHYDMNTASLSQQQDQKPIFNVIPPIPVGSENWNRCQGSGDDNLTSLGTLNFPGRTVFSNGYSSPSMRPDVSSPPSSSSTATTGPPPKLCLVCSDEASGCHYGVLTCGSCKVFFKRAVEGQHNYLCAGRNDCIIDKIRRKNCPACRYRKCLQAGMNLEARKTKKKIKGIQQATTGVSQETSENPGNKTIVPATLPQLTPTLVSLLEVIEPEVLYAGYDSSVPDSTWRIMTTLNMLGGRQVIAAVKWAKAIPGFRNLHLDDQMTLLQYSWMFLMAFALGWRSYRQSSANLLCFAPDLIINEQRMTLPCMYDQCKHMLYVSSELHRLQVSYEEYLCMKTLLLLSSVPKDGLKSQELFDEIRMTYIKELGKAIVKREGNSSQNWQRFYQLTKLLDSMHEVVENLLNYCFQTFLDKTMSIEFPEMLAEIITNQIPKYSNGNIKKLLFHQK
Protocol: as §1

5-lipoxygenase = biological target: T2, 5-lipoxygenase (Homo sapiens, UniProt P09917); assay: inhibition of 5-lipoxygenase; assay type: biochemical; settings: 0.5% DMSO
T2 sequence (P09917 1-674): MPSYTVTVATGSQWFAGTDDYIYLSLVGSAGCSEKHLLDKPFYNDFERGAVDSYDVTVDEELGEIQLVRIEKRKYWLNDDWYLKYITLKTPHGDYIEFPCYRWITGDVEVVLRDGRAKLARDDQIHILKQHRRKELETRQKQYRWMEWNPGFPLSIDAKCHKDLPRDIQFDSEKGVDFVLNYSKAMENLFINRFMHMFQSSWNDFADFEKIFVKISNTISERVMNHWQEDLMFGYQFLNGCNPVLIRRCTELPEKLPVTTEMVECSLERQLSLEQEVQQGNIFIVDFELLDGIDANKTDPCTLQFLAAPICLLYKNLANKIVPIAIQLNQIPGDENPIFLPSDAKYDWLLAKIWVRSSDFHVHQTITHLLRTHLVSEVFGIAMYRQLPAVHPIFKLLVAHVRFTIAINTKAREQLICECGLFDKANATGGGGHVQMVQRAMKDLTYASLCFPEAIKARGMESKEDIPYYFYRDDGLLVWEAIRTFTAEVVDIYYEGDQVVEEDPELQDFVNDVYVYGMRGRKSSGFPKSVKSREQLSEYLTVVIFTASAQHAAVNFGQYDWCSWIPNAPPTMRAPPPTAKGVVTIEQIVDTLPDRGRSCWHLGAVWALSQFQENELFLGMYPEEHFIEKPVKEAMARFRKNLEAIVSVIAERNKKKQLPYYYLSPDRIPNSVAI
Protocol: as §1

P59^fyn tyrosine kinase = P59^fyn tyrosine kinase (Homo sapiens, UniProt P06241); assay: inhibition of P59^fyn tyrosine kinase; assay type: biochemical; settings: 0.5% DMSO
Chain of P59^fyn tyrosine kinase (P06241 whole entry): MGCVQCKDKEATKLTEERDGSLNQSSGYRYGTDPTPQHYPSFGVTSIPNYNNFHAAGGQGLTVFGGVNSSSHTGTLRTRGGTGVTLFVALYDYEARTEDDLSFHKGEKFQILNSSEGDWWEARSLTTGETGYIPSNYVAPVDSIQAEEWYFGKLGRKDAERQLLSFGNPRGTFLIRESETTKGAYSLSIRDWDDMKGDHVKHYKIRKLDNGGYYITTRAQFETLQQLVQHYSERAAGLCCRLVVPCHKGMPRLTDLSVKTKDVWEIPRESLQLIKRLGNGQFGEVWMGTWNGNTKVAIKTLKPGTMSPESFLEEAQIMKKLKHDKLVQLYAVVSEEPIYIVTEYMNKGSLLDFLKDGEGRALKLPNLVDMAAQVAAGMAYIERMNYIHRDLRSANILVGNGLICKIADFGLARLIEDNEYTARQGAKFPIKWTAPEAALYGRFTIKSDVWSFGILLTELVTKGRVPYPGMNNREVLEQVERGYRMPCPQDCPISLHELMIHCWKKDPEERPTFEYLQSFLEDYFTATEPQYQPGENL
Protocol: as §1

PAF binding sites = PAF binding sites (Homo sapiens, UniProt P25105); assay: displacement of [^3 H]PAF from PAF binding sites; settings: 0.01, 0.1, 1 and 10 μM tested, 0.5% DMSO
Chain of PAF binding sites (P25105 whole entry): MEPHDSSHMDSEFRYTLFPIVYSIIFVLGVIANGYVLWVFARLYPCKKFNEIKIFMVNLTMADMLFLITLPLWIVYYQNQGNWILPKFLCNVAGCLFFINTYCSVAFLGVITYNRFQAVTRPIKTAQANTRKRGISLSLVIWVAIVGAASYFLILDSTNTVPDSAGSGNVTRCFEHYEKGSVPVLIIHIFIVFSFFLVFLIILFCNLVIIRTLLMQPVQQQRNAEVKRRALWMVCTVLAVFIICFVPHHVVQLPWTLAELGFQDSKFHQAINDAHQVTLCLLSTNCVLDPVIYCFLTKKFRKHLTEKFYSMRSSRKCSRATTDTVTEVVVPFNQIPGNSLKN
Protocol: as §1

[2] = biological target: histamine H1 binding sites (Homo sapiens, UniProt P35367); assay: displacement of [^3 H]pyrilamine from histamine H1 binding sites; settings: 0.01, 0.1, 1 and 10 μM tested, 0.5% DMSO
Chain of histamine H1 binding sites (P35367 whole entry): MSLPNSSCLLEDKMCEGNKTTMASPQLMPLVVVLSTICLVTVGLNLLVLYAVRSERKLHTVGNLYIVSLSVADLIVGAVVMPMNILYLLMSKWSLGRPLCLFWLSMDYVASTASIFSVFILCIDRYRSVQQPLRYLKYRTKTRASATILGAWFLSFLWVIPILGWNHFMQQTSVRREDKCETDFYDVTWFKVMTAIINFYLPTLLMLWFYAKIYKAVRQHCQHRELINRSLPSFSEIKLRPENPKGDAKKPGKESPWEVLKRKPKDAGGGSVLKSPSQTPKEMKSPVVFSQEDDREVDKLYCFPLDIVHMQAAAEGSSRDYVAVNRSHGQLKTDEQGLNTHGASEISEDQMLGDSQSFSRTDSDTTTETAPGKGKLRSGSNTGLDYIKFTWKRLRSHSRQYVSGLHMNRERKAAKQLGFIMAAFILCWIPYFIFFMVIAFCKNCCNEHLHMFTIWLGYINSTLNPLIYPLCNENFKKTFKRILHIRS
Protocol: as §1

Phospholipase A2 = assay: inhibition of Phospholipase A2; assay type: biochemical; settings: 0.5% DMSO
Protocol: as §1

[3] = test system: de novo PAF-acetyltransferase; assay: inhibition of de novo PAF-acetyltransferase (de novo pathway of PAF synthesis); assay type: biochemical
EGF tyrosine kinase = EGF tyrosine kinase (Homo sapiens, UniProt P00533); assay: inhibition of EGF tyrosine kinase; assay type: biochemical; settings: 0.5% DMSO
Chain of EGF tyrosine kinase (P00533 25-1210): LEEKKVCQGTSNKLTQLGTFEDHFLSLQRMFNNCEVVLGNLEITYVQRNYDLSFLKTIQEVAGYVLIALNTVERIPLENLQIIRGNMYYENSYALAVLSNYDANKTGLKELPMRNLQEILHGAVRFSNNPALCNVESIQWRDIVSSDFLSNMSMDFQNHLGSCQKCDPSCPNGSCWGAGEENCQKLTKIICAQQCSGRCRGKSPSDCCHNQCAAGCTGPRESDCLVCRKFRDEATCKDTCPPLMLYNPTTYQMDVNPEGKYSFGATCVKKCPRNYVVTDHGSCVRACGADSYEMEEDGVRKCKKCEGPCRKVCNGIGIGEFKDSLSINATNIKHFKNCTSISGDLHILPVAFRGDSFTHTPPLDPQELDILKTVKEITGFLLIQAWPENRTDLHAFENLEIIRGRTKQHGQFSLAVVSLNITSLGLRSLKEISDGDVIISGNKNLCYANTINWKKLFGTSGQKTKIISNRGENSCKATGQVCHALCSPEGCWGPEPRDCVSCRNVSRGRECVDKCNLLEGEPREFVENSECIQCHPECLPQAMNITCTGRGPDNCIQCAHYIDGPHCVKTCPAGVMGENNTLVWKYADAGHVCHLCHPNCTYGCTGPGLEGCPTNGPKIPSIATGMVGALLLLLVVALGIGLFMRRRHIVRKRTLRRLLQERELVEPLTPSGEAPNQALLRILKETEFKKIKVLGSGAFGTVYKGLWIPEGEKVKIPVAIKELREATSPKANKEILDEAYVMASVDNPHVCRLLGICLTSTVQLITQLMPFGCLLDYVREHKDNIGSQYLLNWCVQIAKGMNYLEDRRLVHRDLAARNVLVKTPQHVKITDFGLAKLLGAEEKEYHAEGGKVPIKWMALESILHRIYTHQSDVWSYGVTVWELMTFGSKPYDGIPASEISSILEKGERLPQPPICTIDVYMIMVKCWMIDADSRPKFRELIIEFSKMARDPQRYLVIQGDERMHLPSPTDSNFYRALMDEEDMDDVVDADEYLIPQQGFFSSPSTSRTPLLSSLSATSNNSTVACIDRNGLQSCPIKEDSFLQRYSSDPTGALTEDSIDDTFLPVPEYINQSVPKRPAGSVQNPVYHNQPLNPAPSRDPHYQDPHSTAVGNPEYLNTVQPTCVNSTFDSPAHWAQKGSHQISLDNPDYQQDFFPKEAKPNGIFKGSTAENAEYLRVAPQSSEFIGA
Protocol: as §1

B cell = B cell proliferation in the presence of LPS; assay type: cell-based
Cyclooxygenase = assay: inhibition of Cyclooxygenase; assay type: biochemical; settings: 0.5% DMSO
Protocol: as §1

[4] = test system: remodeling PAF-acetyltransferase; assay: inhibition of remodeling PAF-acetyltransferase (remodeling pathway of PAF synthesis); assay type: biochemical
Excerpt: A second screening assay detects modulators of the formation of PAF from lyso-PAF and acetyl-CoA by an enzyme termed PAF acetyltransferase. This is the second step in the remodeling pathway of PAF synthesis, described by Wykle, J. Biol. Chem. 255:10256-60, 1980.
The remodeling pathway of PAF synthesis is the pathway involved in pathological processes, such as inflammation, and particularly in neutrophil-mediated processes. The de novo pathway of PAF synthesis is required for normal physiological functions. Therefore, a desirable, anti-inflammatory, therapeutically effective PAF modulator will down-regulate the remodeling pathway, but will have little or no effect on the de novo pathway of PAF synthesis.
Briefly, to assay the remodeling pathway acetyl-transferase, […] of […] bovine serum albumin (fatty acid free; Sigma) in PBS (120 mM NaCl, 2.7 mM KCl, 10 mM phosphate buffer, pH 7.4, supplemented with 10 μM CaCl2) was added to each well of a 96-well, flat-bottom microtiter plate. The plate was incubated for 15 min at ambient temperature, then the wells were aspirated and 50 μl of PBS was added to each well. Duplicate or triplicate test samples in DMSO (≤5% (v/v)) were added to each well.
HL-60 cells (a stable, transformed hematopoietic cell line) were combined with PBS containing 0.05% TWEEN-20 and mixed vigorously at 500 rpm for 30 sec. This treatment permeabilized the HL-60 cells. An aliquot (50 μl) of HL-60 lysate so formed was added to each well of the plate, and the plate was incubated for 5 min at ambient temperature with gentle shaking.
PAF acetyl-transferase substrates were added to each well, such that 25 μl of the following solution was added per well: Lyso-PAF ([…]; Calbiochem, La Jolla, Calif.), acetyl-CoA ([…]; Calbiochem), and ^3 H-acetyl-CoA (25 μCi/ml; Amersham). The plate was gently mixed for 45 sec and then incubated at 37° C. for 20 min.
Newly synthesized PAF was extracted by adding 1.25 mg of AMBERCHROM CG-71 resin (Supelco, Bellefonte, Pa.) in 25 μl of distilled water to each well. The plate was gently shaken for 1 min, following which the resin was collected on a 102 mm×258 mm glass-fiber filter using a MICRO-CELL HARVESTER (Skatron, Waltham, Mass.). The filter was washed with 500 ml water to remove unincorporated ^3 H-acetyl-CoA. Following the wash, the filter was dried in a microwave oven for 5-10 min.
After the filter was dried, it was soaked in 10 ml of Beta Plate scintillation fluid (LKB, Loughborough, England), and bound counts were determined in a TOP COUNT scintillation counter (Pharmacia). Percentage inhibition was determined by dividing the average of 2 or 3 replicate wells by the average of 3 control wells (5% DMSO alone), and multiplying by 100.

solubility in 0.5% DMSO = assay type: physicochemical; settings: at 0.01, 0.1, 1 and 10 μM
T cell = T cell proliferation in the presence of ConA; assay type: cell-based

Chain of P56^lck tyrosine kinase (P06239 whole entry): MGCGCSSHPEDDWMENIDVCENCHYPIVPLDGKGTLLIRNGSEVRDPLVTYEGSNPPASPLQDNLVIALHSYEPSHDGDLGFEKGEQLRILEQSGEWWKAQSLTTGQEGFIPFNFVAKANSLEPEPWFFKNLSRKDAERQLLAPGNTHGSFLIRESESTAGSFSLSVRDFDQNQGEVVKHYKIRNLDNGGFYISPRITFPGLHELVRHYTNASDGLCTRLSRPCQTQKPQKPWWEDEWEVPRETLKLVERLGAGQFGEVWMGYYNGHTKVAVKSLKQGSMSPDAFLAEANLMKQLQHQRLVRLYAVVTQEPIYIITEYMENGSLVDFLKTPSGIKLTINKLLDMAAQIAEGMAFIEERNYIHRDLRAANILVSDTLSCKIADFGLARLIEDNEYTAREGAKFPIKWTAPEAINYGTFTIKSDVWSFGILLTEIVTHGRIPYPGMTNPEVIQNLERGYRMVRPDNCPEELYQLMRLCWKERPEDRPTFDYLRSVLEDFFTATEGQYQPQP

Structure (SMILES): CCC(C)C=C(C)C1C(C)=CC2(C)CC(C)CCC2C1C(=O)C1=CC(O)(Cc2ccc(O)cc2)NC1=O (centres unmarked) [Compound 1494]
- IC50 (P56^lck tyrosine kinase): ~3 µM
- IC50 [1]: ~3 µM
- IC50 (5-lipoxygenase): ~10 µM
- IC50 (P59^fyn tyrosine kinase): ~3 µM
- IC50 (PAF binding sites): ~3 µM
- IC50 [2]: ~3 µM
- IC50 (Phospholipase A2): ~100 µM
- inhibition of de novo PAF-acetyltransferase ([3]; 0.1 to 8.3 μg/well): no significant inhibition
- IC50 (EGF tyrosine kinase): ~3 µM
- B cell proliferation (B cell): stimulated B cell proliferation
- IC50 (Cyclooxygenase): ~300 µM
- inhibition of remodeling PAF-acetyltransferase ([4]; 0.1 μg/well): about 12%
- inhibition of remodeling PAF-acetyltransferase ([4]; 8.3 μg/well): about 71%
- inhibition of remodeling PAF-acetyltransferase ([4]; 25 μg/well): about 65%
- selectivity for the remodeling pathway of PAF synthesis ([4]; versus de novo PAF-acetyltransferase): selective modulator of the remodeling pathway of PAF synthesis
- solubility (solubility in 0.5% DMSO): partial solubility
- T cell proliferation (T cell): T cell proliferation

Structure (SMILES): CCC(C)C=C(C)C1C(C)=CC2(C)CC(C)CC(C)C2C1C(=O)C1=CC(O)(Cc2ccc(O)cc2)NC1=O (centres unmarked) [Compound 2158]
- inhibition of de novo PAF-acetyltransferase ([3]; 0.1 to 25 μg/well): No significant inhibition
- inhibition of remodeling PAF-acetyltransferase ([4]; 25 μg/well): 59%
- inhibition of remodeling PAF-acetyltransferase ([4]; 0.9 to 0.1 μg/well): 0%
